What was measured:
PDE4D7 = molecular target: T1, PDE4D7 (Homo sapiens, UniProt Q08499); experiment: PDE enzyme inhibitor assay (LANCE Ultra cAMP), PDE4D; assay type: biochemical; settings: for IC50: 0.1 ng/well enzyme, 3 nM cAMP, 37°C 1 h
T1 construct: purchased BPS Biosciences
Protocol: (§1) The enzyme inhibition assay was performed against human PDE enzymes (PDE1A, PDE3A, PDE4A, PDE4B, PDE4C, PDE4D, and PDE7A; BPS Biosciences, San Diego, CA, United States) according to the manufacturer’s instructions (LANCE Ultra cAMP assay kit; Perkin Elmer, United States). In each well, 5 μl of 3 nM cAMP, 2.5 μl of PDE enzyme (0.1 ng/well), and 2.5 μl of inhibitor solution were added, and incubated at 37°C for 1 h. After incubation, 5 μL each of Eu-cAMP and ULight-anti-cAMP detection reagent supplemented with 1 mM of IBMX were added. The reaction mixture was incubated at 37°C for 1 h. After incubation, emission signals were collected at 665 nm using EnVision Multilable Reader (Perkin Elmer, United States).

DNCB-induced NC/Nga mice [1] = experiment: DNCB-induced atopic dermatitis model, histopathology and immunohistochemistry of dorsal skin; assay type: in vivo, mouse; settings: for mast cell infiltration in the epidermis region (toluidine blue), number of mast cells: topical 1% compound 1 or 0.3% compound 2, DNCB alone 97 ± 10.58, control 13 ± 2; for CD4+ cells in the skin (immunohistochemistry) / epidermal thickening (H&E) / infiltration of inflammatory cells into epidermis and dermis (H&E): topical 1% compound 1 or 0.3% compound 2, vs DNCB alone
Protocol: (§2) Male NC/Nga mice, 7-weeks-old, were purchased from Central Lab Animal Inc., South Korea. All mice were housed in specific pathogen-free conditions at the animal facility center of the College of Pharmacy at Seoul National University (Seoul, Korea), and were maintained at 24 – 26°C with a 12 h light and dark cycle. Animal experiments were conducted in accordance with protocols approved by the Institutional Animal Care and Use Committee of Seoul National University.
(§3) NC/Nga mice were classified into six groups (n = 6): (1) vehicle alone, acetone-olive oil (Sigma-Aldrich, St. Louis, MO, United States) in a ratio of 3:1 was used as a vehicle; (2) 1% of compound-1 with vehicle alone; (3) 0.3% of compound-2 with vehicle alone; (4) DNCB+vehicle; (5) DNCB + 1% of compound-1 mixed with vehicle; and (6) DNCB + 0.3% of compound-2 mixed with vehicle. DNCB (Sigma-Aldrich, St. Louis, MO, United States) was used to induce AD on the dorsal skin of the mice. Compound 1 and 2 were dissolved in 150 μl of vehicle and topically applied on the atopic tissue. Hair on the backs of the mice were removed using an electric clipper. Two days later, 150 μl of 1% DNCB was dissolved in the vehicle and applied on the dorsal skin twice with an interval period of 4 days. Afterward, 150 μl of 0.2% DNCB dissolved in the vehicle was applied to challenge the dorsal skin twice-a-week for 5 weeks. AD-induced mice were co-treated with either compound-1 or compound-2 once daily from day six onward until the end of the experiments.
Skin samples collected from the experimental mice were fixed by using 10% neutral buffered formalin, and embedded in paraffin. 4-μm thin tissue sections were prepared and stained with hematoxylin and eosin (H&E; Sigma-Aldrich, United States). To investigate the mast cell infiltration, sections were stained with toluidine blue (Sigma-Aldrich, United States). For immunohistochemical analysis, tissue sections were microwaved in sodium citrate buffer for 10 min to retrieve the antigen/epitope. After incubating with 0.1% triton X-100 containing phosphate buffered saline (PBS), sections were blocked with 10% FBS. Then, sections were incubated overnight with primary antibodies specific for IL-4, 5, 17, IFN-γ, and CD4, respectively (Santa Cruz Biotechnology, Santa Cruz, CA, United States). After treatment with 0.3% H2O2 in 0.1 M PBS for 15 min, sections were incubated with HRP-conjugated secondary antibodies specific for IL-4, 5, 17, IFN-γ, and CD4 for 1 h at room temperature. Diaminobenzidine was used to detect peroxidase activity, which was photographed using an Olympus AX70 light microscope (Tokyo, Japan).

PDE7 = molecular target: T2, PDE7 (Homo sapiens, UniProt Q13946); experiment: PDE enzyme inhibitor assay (LANCE Ultra cAMP), PDE7; assay type: biochemical; settings: 0.1 ng/well enzyme, 3 nM cAMP, 37°C 1 h
T2 construct: purchased BPS Biosciences
Protocol: as §1

Raw 264.7 cells [2] = experiment: LPS-induced TNF-α in macrophage cell line (ELISA); assay type: cell-based; settings: 30 nM compound 1 or 15 nM compound 2, 1 μM LPS 30 min
Protocol: (§4) The macrophage cell line, Raw 264.7 was maintained for 24 h in serum free DMEM medium. Then, cells were incubated with 30 nM of compound 1 and 15 nM of compound 2 for 1 h. After incubation, 1 μM of LPS (Sigma-Aldrich, United States) was added and incubated for 30 min at 37°C in a humidified 5% CO2 atmosphere. Finally, cells were lysed and supernatants were harvested. Intracellular cAMP levels were measured using the cAMP ELISA kit according to the manufacturer’s instruction (ADI-900-066; Enzo Life Sciences, United States). Similarly, TNFα level was assayed by ELISA analysis according to the manufacturer’s protocol (LEGEND MAX^TM Human TNF-α ELISA Kit, San Diego, CA, United States). Concentration is expressed in pg/mL.

DNCB-induced NC/Nga mice [3] = experiment: DNCB-induced atopic dermatitis model, serum IgE and cytokines by ELISA; assay type: in vivo, mouse; settings: for serum IL-4 level / serum IL-5 level: topical 1% compound 1 (p < 0.05) or 0.3% compound 2 (p < 0.01); for serum IL-4 level / serum IL-5 level / serum IL-17 level: vs DNCB alone; for serum IL-17 level: topical 1% compound 1 (p < 0.5) or 0.3% compound 2 (p < 0.01); for serum IFN-γ level (reduced by DNCB): topical 1% compound 1 or 0.3% compound 2; for serum IgE level: topical 1% compound 1 or 0.3% compound 2, p < 0.01 vs DNCB
Protocol: as §2, §3
On the final day of the experimental scheme, blood samples were collected from the experimental animals. Serum was isolated and stored at -80°C along with protease inhibitor cocktail for later use (Thermo Fisher Scientific, United States). Serum IL-4, IL-5, IL-17, IFN-γ, and IgE levels were measured according to the manufacturer’s instructions (Biolegend, San Diego, CA, United States; IL-4-431101; IL-17-432501; IL-5-431204; IFN-γ- 430801; IgE-432401; TNF-α- 430901). Serum samples were diluted five-fold for the cytokine assay. 10,000-fold diluted serum samples were utilized for the IgE assay. Absorbance was measured immediately at 492 nm using a multiplate reader (Molecular Devices Spectramax M5, Sunnyvale, CA, United States).

PDE3B = PDE3B (Homo sapiens, UniProt Q13370); experiment: PDE enzyme inhibitor assay (LANCE Ultra cAMP), PDE3B; assay type: biochemical; settings: 0.1 ng/well enzyme, 3 nM cAMP, 37°C 1 h
PDE4B1 = molecular target: T3, PDE4B1 (Homo sapiens, UniProt Q07343); experiment: PDE enzyme inhibitor assay (LANCE Ultra cAMP), PDE4B; assay type: biochemical; settings: for IC50: 0.1 ng/well enzyme, 3 nM cAMP, 37°C 1 h; for specificity against PDE4B compared to other PDE enzymes: versus PDE1A, PDE3B, PDE4A, PDE4C, PDE4D, PDE7
T3 construct: purchased BPS Biosciences

PDE1A = molecular target: T4, PDE1A (Homo sapiens, UniProt P54750); experiment: PDE enzyme inhibitor assay (LANCE Ultra cAMP), PDE1A; assay type: biochemical; settings: 0.1 ng/well enzyme, 3 nM cAMP, 37°C 1 h
T4 construct: purchased BPS Biosciences
Protocol: as §1

DNCB-induced NC/Nga mice [4] = experiment: DNCB-induced atopic dermatitis model, evaluation of skin lesion and organs; assay type: in vivo, mouse; settings: for dorsal skin thickness / spleen weight / subiliac lymph node size / subiliac lymph node weight / week after which significant reduction in dermatitis score was observed / scratching frequency (DNCB-induced itching sensation) / dermatitis score / AD-like skin features (erythema, hemorrhage, dry skin): DNCB-induced mice; for dorsal skin thickness: end of experiment, DNCB alone 1.19 mm, control 0.45 mm; for dorsal skin thickness / spleen weight / subiliac lymph node size / subiliac lymph node weight: topical 1% compound 1 or 0.3% compound 2; for spleen weight / subiliac lymph node size / subiliac lymph node weight / AD-like skin features (erythema, hemorrhage, dry skin): vs DNCB alone; for week after which significant reduction in dermatitis score was observed / scratching frequency (DNCB-induced itching sensation) / dermatitis score / AD-like skin features (erythema, hemorrhage, dry skin): topical once daily, 1% compound 1 or 0.3% compound 2; for scratching frequency (DNCB-induced itching sensation): measured once-a-week for 5 weeks; for dermatitis score: p < 0.01 vs DNCB; for skin feature of compound alone treated mice: no DNCB, topical 1% compound 1 or 0.3% compound 2 with vehicle alone
Protocol: as §2, §3
Dermatitis score was measured according to a previously established method, once-a-week for 5 weeks ([Matsuda et al., 1997]). Skin features of dermatitis, such as erythema/hemorrhage, edema, excoriation/erosion, and scaling/dryness were considered in the evaluation. Each symptom was scored as follows: 0 (none); 1 (mild); 2 (moderate); and 3 (severe). The sum of all the scores was defined as the dermatitis score of individual mice, which ranged between 0 and 12. In addition, the scratching behavior of the experimental animals was measured once-a-week for 5 weeks. Specifically, we measured the frequency with which the mice rubbed their dorsal skin, hind paws, nose, and ears for 10 min.

PDE4C1 = molecular target: T5, PDE4C1 (Homo sapiens, UniProt Q08493); experiment: PDE enzyme inhibitor assay (LANCE Ultra cAMP), PDE4C; assay type: biochemical; settings: 0.1 ng/well enzyme, 3 nM cAMP, 37°C 1 h
T5 construct: purchased BPS Biosciences
Protocol: as §1

PDE4A4 = molecular target: T6, PDE4A4 (Homo sapiens, UniProt P27815); experiment: PDE enzyme inhibitor assay (LANCE Ultra cAMP), PDE4A; assay type: biochemical; settings: 0.1 ng/well enzyme, 3 nM cAMP, 37°C 1 h
T6 construct: purchased BPS Biosciences
Protocol: as §1

Raw 264.7 cells [5] = experiment: Intracellular cAMP in LPS-stimulated macrophage cell line (ELISA); assay type: cell-based; settings: 30 nM compound 1 or 15 nM compound 2 for 1 h, then 1 μM LPS 30 min
Protocol: as §4

T1 sequence (Q08499 1-748 isoform Q08499-11): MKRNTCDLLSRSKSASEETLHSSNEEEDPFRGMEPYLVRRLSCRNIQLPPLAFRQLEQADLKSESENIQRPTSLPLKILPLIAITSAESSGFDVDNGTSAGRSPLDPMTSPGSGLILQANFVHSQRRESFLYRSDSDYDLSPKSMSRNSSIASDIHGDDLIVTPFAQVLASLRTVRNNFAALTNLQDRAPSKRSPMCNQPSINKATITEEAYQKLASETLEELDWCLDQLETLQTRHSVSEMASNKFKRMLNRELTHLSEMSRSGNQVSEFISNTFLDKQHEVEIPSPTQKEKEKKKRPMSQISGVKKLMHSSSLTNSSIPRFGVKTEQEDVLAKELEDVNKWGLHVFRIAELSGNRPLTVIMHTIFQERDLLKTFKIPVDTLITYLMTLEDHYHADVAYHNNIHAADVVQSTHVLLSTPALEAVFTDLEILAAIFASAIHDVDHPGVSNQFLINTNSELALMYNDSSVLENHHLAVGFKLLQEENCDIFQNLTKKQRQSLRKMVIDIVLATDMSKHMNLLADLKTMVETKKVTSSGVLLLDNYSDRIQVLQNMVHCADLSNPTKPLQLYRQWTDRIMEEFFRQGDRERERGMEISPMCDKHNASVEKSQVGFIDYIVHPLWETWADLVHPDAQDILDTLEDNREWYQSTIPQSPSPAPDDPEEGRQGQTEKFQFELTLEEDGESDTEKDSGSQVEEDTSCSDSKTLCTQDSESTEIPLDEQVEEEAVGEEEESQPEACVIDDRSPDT
T3 sequence (Q07343 whole entry): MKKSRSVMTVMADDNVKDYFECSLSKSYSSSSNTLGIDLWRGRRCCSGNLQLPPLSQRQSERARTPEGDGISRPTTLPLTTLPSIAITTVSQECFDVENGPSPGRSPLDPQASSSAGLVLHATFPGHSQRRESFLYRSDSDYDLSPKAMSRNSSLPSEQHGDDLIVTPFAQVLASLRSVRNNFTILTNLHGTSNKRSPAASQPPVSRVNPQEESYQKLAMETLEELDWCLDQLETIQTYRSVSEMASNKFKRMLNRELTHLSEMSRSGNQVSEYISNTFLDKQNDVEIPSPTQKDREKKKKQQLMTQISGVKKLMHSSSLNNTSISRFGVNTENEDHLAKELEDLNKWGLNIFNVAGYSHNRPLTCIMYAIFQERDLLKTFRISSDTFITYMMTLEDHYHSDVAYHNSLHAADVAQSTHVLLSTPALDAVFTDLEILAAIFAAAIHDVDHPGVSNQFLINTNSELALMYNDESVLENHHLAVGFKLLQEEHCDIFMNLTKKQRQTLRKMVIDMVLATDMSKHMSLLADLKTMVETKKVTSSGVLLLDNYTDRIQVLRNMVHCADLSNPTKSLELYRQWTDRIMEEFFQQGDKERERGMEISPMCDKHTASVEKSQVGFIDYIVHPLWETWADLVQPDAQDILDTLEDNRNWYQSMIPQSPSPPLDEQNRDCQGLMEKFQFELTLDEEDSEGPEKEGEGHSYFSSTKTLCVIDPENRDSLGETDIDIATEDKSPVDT
T2 sequence (Q13946 whole entry): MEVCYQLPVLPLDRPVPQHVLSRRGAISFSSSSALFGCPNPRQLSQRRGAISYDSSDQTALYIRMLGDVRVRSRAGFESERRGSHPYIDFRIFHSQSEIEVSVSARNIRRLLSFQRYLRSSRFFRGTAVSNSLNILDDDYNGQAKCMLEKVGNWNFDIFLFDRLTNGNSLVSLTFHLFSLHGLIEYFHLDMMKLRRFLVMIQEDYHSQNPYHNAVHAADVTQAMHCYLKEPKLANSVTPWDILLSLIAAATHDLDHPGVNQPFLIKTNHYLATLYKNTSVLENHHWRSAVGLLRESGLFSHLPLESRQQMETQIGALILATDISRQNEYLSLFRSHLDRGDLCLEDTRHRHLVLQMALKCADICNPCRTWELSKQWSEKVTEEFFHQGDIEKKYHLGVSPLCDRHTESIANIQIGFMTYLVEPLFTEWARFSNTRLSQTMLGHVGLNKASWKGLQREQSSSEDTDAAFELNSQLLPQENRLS
T6 sequence (P27815 whole entry): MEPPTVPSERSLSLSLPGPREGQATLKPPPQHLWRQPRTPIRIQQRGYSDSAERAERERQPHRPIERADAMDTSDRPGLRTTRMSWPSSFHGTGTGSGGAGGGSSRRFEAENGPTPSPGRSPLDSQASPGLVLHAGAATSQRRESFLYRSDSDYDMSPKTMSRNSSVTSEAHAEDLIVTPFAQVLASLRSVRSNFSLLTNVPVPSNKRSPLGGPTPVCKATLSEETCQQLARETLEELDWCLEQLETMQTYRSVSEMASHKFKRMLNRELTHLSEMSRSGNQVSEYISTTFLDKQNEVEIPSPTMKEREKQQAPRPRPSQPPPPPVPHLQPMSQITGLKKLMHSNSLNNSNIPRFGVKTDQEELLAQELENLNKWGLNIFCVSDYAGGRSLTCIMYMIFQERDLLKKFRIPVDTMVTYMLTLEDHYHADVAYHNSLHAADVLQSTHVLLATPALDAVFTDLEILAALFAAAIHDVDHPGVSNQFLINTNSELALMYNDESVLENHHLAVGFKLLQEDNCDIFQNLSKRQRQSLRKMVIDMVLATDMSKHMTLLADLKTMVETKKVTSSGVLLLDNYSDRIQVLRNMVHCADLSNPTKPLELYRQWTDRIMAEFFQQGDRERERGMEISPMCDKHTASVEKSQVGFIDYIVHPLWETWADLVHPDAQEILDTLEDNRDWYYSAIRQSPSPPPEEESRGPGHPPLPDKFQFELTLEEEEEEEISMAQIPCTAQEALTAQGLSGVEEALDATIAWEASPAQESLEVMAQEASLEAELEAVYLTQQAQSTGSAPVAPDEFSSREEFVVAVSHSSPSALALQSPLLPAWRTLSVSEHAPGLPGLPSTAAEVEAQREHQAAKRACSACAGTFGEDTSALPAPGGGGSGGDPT
T5 sequence (Q08493 whole entry): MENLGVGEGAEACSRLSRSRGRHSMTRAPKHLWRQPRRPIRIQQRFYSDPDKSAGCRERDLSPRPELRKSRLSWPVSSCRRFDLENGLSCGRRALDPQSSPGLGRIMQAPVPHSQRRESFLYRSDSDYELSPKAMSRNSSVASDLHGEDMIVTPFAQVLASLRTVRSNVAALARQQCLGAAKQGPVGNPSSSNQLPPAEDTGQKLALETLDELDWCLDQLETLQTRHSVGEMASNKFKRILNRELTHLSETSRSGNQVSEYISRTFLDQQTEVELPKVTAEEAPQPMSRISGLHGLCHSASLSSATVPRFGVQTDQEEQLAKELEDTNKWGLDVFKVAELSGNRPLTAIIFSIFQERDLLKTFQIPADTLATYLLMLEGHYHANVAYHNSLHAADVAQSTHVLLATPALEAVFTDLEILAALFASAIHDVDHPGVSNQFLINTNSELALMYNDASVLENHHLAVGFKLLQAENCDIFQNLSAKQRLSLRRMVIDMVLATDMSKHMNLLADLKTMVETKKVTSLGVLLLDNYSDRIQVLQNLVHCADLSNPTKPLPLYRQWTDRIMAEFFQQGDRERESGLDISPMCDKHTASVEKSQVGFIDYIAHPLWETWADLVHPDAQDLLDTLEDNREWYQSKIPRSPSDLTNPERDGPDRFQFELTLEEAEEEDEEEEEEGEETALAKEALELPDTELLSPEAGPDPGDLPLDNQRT
T4 sequence (P54750 whole entry): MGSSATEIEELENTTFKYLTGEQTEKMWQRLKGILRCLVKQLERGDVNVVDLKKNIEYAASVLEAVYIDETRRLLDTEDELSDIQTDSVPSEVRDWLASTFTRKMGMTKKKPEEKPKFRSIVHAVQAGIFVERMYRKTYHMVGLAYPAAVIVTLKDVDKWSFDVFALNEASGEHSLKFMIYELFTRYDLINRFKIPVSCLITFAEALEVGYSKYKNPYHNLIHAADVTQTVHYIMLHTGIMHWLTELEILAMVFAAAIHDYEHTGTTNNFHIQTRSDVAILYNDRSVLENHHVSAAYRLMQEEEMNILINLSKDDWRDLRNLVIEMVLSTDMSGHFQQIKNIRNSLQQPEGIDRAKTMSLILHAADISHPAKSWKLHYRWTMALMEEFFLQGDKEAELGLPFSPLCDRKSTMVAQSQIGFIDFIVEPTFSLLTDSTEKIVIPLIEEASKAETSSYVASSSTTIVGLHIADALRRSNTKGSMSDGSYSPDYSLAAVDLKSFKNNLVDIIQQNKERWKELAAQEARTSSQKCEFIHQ

Row | IC50 (PDE4D7) [nM] | IC50 (PDE7) [nM] | IC50 (PDE3B) [nM] | IC50 (PDE4B1) [nM] | specificity against PDE4B compared to other PDE enzymes (PDE4B1) | IC50 (PDE1A) [nM] | SMILES | mast cell infiltration in the epidermis region (toluidine blue), number of mast cells (DNCB-induced NC/Nga mice [1]) [per 350 μm^2] | CD4+ cells in the skin (immunohistochemistry) (DNCB-induced NC/Nga mice [1]) | epidermal thickening (H&E) (DNCB-induced NC/Nga mice [1]) | infiltration of inflammatory cells into epidermis and dermis (H&E) (DNCB-induced NC/Nga mice [1]) | LPS-induced TNF-α synthesis (Raw 264.7 cells [2]) | serum IL-4 level (DNCB-induced NC/Nga mice [3]) | serum IL-5 level (DNCB-induced NC/Nga mice [3]) | serum IL-17 level (DNCB-induced NC/Nga mice [3]) | serum IFN-γ level (reduced by DNCB) (DNCB-induced NC/Nga mice [3]) | serum IgE level (DNCB-induced NC/Nga mice [3]) | dorsal skin thickness (DNCB-induced NC/Nga mice [4]) [mm] | spleen weight (DNCB-induced NC/Nga mice [4]) | subiliac lymph node size (DNCB-induced NC/Nga mice [4]) | subiliac lymph node weight (DNCB-induced NC/Nga mice [4]) | also measured
1 | 108 ± 3.78 | 250 ± 14.6 | 169 ± 3.78 | 15 ± 0.4 | high specificity against PDE4B | 98 ± 8.45 | COc1ccc(-c2nc(C(F)(F)F)ncc2C(=O)Nc2ccncc2)cc1OC [compound 2, 4-(3,4-dimethoxyphenyl)-N-(pyridin-4-yl)-2-(trifluoromethyl)pyrimidine-5-carboxamide] | 29.41 ± 6 | reduced levels of CD4+ cells | reduced epidermal thickening | reduced levels of inflammatory cells | effectively inhibited | significantly reversed | significantly reversed | reduced level | significantly reversed | significantly reduced | 0.64 | significantly reduced | drastically reduced | drastically reduced | concentration required to inhibit PDE4D relative to PDE4B (PDE4D7; PDE4D versus PDE4B): nearly sevenfold higher concentration; week after which significant reduction in dermatitis score was observed (DNCB-induced NC/Nga mice [4]): second; scratching frequency (DNCB-induced itching sensation) (DNCB-induced NC/Nga mice [4]): significantly (p < 0.01) inhibited; dermatitis score (DNCB-induced NC/Nga mice [4]): significant reduction; AD-like skin features (erythema, hemorrhage, dry skin) (DNCB-induced NC/Nga mice [4]): reduced levels of erythema and hemorrhage and dry skin; skin feature of compound alone treated mice (DNCB-induced NC/Nga mice [4]): normal skin feature, no sign of allergy was observed; IC50 (PDE4C1): 57 ± 4.87 nM; IC50 (PDE4A4): 152 ± 1.33 nM; intracellular levels of cAMP (Raw 264.7 cells [5]): significantly improved
2 | 220 ± 16.3 | 389 ± 26.3 | 800 ± 45.8 | 31 ± 7.17 | not exclusive to PDE4B alone | 756 ± 59 | COc1ccc(NC(=O)c2cnc(SC)nc2N2CCOCC2)cc1OC [compound 1, N-(3,4-dimethoxyphenyl)-2-(methylthio)-4-morpholinopyrimidine-5-carboxamide] | 56 ± 11 | reduced levels of CD4+ cells | reduced epidermal thickening | reduced levels of inflammatory cells | effectively inhibited | significantly reversed | significantly reversed | reduced level | significantly reversed | significantly reduced | 0.78 | significantly reduced | drastically reduced | drastically reduced | week after which significant reduction in dermatitis score was observed (DNCB-induced NC/Nga mice [4]): third; scratching frequency (DNCB-induced itching sensation) (DNCB-induced NC/Nga mice [4]): significantly (p < 0.01) inhibited; dermatitis score (DNCB-induced NC/Nga mice [4]): significant reduction; AD-like skin features (erythema, hemorrhage, dry skin) (DNCB-induced NC/Nga mice [4]): reduced levels of erythema and hemorrhage and dry skin; skin feature of compound alone treated mice (DNCB-induced NC/Nga mice [4]): normal skin feature, no sign of allergy was observed; IC50 (PDE4C1): 77 ± 8.8 nM; IC50 (PDE4A4): 45 ± 3.54 nM; intracellular levels of cAMP (Raw 264.7 cells [5]): significantly improved

Reference: paper PMC5958743, “A Novel Catecholopyrimidine Based Small Molecule PDE4B Inhibitor Suppresses Inflammatory Cytokines in Atopic Mice” (Frontiers in Pharmacology, 2018)
